{"source": "patent US20220354862A1", "about": "“LIPOSOME DELIVERY OF PSYCHEDELICS” (Mind Medicine, Inc., priority 2021, published 2022)", "key": {"hERG potassium channels": {"molecular_target": "hERG potassium channels (Homo sapiens, UniProt Q12809)", "sequence (Q12809 whole entry)": "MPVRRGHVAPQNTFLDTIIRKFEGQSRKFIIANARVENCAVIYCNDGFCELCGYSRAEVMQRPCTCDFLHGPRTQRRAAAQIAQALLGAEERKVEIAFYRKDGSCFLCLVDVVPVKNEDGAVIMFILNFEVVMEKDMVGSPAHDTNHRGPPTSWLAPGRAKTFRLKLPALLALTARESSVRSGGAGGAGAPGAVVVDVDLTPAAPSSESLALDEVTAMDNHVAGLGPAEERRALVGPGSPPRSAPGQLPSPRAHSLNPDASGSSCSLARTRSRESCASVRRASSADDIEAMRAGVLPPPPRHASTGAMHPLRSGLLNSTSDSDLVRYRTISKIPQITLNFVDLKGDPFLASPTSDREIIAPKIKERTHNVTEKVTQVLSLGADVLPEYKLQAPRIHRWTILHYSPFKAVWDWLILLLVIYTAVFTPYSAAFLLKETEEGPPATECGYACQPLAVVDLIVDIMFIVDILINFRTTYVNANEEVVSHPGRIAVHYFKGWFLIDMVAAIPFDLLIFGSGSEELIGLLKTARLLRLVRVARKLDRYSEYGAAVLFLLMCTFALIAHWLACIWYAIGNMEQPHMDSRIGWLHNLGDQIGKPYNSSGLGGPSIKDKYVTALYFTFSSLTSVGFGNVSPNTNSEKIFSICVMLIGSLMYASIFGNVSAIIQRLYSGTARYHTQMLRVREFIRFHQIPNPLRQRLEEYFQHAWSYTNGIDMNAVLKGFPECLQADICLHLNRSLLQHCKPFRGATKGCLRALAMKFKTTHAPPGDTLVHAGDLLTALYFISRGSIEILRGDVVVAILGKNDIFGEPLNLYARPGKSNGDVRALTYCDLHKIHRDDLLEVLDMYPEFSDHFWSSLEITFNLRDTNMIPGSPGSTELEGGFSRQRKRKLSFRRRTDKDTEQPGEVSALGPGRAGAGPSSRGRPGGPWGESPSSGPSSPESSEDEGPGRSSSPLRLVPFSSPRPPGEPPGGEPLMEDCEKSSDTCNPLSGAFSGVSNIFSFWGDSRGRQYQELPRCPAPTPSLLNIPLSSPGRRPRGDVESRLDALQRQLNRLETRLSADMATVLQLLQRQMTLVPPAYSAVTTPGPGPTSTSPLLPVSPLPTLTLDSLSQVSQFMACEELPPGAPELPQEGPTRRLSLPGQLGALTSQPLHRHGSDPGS", "details": "high doses; cited from earlier work"}, "[1]": {"assay": "Pharmacokinetic evaluation in rats after bolus IV administration (noribogaine in plasma)", "format": "in vivo, Sprague Dawley rats", "protocol": "Pharmacokinetic Evaluation of the Tissue Distribution of Two Test Articles (Noribogaine and BTLS (Brain-Targeted Liposomes)-Noribogaine) in Rats\nThis study was conducted in adult male Sprague Dawley rats, weighing 250-275 g on arrival. Animals were housed according to the vivarium SOP on a 12-hr light cycle with food and water ad libitum.\n72 rats were divided into 12 groups of 6. Test articles were dosed at 10 mg/kg of active substance (generic and liposomal formulation) and administered IV through the tail vein as a bolus. Animals were sampled for 24 hours after administration. Terminal blood and tissue samples (brain, heart, kidney, liver) were collected at 0.08, 0.25, 1, 2, 4 and 8 hours after the dose. The study compared the two groups, noribogaine and BTLS-noribogaine formulation. Concentration of noribogaine in the plasma and tissues was measured ex vivo and pharmacokinetic analysis was performed."}, "heroin addict": {"system": "heroin addict", "details": "oral, cited from earlier work"}}}
{"molecule": "CC[C@H]1C[C@H]2C[C@H]3c4[nH]c5ccc(O)cc5c4CCN(C2)[C@@H]13", "note": "[NOR, noribogaine]", "values": [{"measurement": "Cardiotoxicity: long QT syndrome / hERG block", "setting": "hERG potassium channels", "value": "cause long QT syndrome by blocking hERG potassium channels"}, {"measurement": "Cl", "setting": "[1]; rat", "value": 0.0064, "unit": "mL/h"}, {"measurement": "Vss", "setting": "[1]; rat", "value": 0.0119, "unit": "mL"}, {"measurement": "Cmax", "setting": "[1]; rat plasma", "value": 223.6, "unit": "ng/mL"}, {"measurement": "T_half", "setting": "[1]; rat plasma", "value": 1.4558, "unit": "h"}, {"measurement": "Tmax", "setting": "[1]; rat plasma", "value": 30, "unit": "min"}]}
{"molecule": "ibogaine", "values": [{"measurement": "Treatments effective, share of cases", "setting": "heroin addict; 6 mg/kg to 19 mg/kg", "value": 71, "unit": "%"}, {"measurement": "Duration of effect of a series of 4 treatments", "setting": "heroin addict; series of 4 treatments", "value": "approximately 3 years"}, {"measurement": "Duration of effect of a single treatment", "setting": "heroin addict; single treatment", "value": "about 6 months"}, {"measurement": "minimum effective dose", "setting": "heroin addict", "value": 400, "unit": "mgs"}]}
